Laboratory results: patent US20210355547A1, “NON-INVASIVE URINARY BIOMARKERS FOR THE DETECTION OF UROTHELIAL CARCINOMA OF THE BLADDER” (THE JOHNS HOPKINS UNIVERSITY, priority 2018, published 2021)

Key:
[1] = system: spheroid CD24-sh and CD24-Ctrl BFTC 905, BFTC 909, and 5637 cells; experiment: Apoptosis assay (PE Annexin V / 7-AAD flow cytometry) after CDDP; type: cell-based; settings: 5 μM CDDP, 72 h; spheroid cells with CD24 knockdown
Method: (§1) FIG. 2A-2E. The chemoresistant and tumorigenic abilities attenuated by CD24 knockdown in BFTC 905, BFTC 909, and 5637 cell lines. (FIG. 2A) Cell viability after 5 μM cisplatin (CDDP) treatment for 72 h in the spheroid CD24-sh cells, as measured by MTT assay. Cell viability was expressed as the ratio of absorbance values of the spheroid CD24-sh cells related to the spheroid CD24-Ctrl cells considered as 1.0. Data are from three independent experiments. (FIG. 2B) An apoptosis assay of spheroid CD24-sh cells treated with 5 μM CDDP for 72 h. Upper, representative images of early apoptosis (bottom right quadrant) and late apoptosis (top right quadrant); Lower, percentage of apoptotic cells. (FIG. 2C) Western blotting analysis of ABCG2, YAP1, and CD133 in stable CD24-sh and CD24-Ctrl cells. (FIG. 2D) Limiting-dilution xenograft assays in stable spheroid CD24-sh BFTC 909 (upper) and BFTC 905 (lower) cells. Tumor growth was measured after subcutaneous injection of serially diluted spheroid cells (1×10^4, 1×10^3, or 1×10^2 cells per flank) into both flanks of NSG mice (five mice per group). SP, Spheroid. (FIG. 2E) Tumor initiation frequency after the xenotransplantation of spheroid CD24-sh BFTC 909 (upper) and BFTC 905 (lower) cells. […]

[2] = system: spheroid CD24-sh and CD24-Ctrl BFTC 905, BFTC 909, and 5637 cells; experiment: Cell viability assay (MTT assay) after cisplatin treatment; type: cell-based; settings: 5 μM CDDP, 72 h; spheroid CD24-sh vs spheroid CD24-Ctrl cells
Method: as §1, with “Spheroid.” for “Spheroid. (FIG. 2E) Tumor initiation frequency after the xenotransplantation of spheroid CD24-sh BFTC 909 (upper) and BFTC 905 (lower) cells.”
Cell viability assay (MTT assay). Cell viability was measured using the 3-(4, 5-dimethyl thiazol-2-yl)-2, 5-diphenyltetrazolium bromide (MTT) Proliferation Assay Kit (ATCC; Manassas, Va., USA) according to the manufacturer's protocol. […]

Compound: N.N.[Cl][Pt][Cl] [cisplatin]
- anti-apoptotic ability against CDDP treatment [1]: CD24 knockdown significantly attenuated the anti-apoptotic ability against CDDP treatment
- sensitivity of spheroid cells to CDDP treatment (cell viability) [2]: spheroid CD24-sh cells were more sensitive to CDDP treatment than spheroid CD24-Ctrl cells
